# In patent US8846750B2, “Pharmaceutical and food compositions for preventing or treating diabetes or obesity” (Korea Ocean Research and Development Institute, priority 2010, dated 2014):
# Target: T1, PTP-1b (Homo sapiens, UniProt P18031)
# T1 construct: purchased Bioneer, Korea
# T1 sequence (P18031 1-435): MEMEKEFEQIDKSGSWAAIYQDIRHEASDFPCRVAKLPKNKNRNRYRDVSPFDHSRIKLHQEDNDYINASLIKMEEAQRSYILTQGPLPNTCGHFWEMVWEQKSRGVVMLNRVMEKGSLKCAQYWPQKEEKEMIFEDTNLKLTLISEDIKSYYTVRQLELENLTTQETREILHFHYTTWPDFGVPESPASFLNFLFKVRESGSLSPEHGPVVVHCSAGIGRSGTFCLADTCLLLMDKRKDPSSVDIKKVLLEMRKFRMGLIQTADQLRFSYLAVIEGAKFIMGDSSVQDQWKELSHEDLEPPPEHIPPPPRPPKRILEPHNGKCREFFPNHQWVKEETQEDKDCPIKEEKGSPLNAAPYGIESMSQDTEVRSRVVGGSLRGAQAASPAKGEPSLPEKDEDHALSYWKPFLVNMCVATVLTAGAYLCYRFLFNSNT
# Assay: PTP-1b inhibitory activity of lobaric acid (control), pNPP assay
# Format: biochemical
# Conditions: read-out: IC50 against PTP-1b
# Description: Meanwhile, the PTP-1b inhibitory activity of lobaric acid as a control was measured. PTP-1b used in the test was purchased from BIOMOL (USA). In order to spectroscopically measure the activity of the enzyme, about 0.2 μg/Ml of PTP-1b, PTP-1b buffer (50 mM citrate, pH 6.0, 0.1M NaCl, 1 mM EDTA, 1 mM DTT), lobaric acid, 4 mM pNPP were mixed, shaken lightly, and then reacted at 37° C. for 30 minutes, after which the absorbance at 405 nm was measured.
structure (smiles),measurement,value
CCCCCc1c2c(cc(O)c1C(=O)O)OC(=O)c1c(cc(OC)cc1C(=O)CCCC)O2 [lobaric acid],IC50,870 nM
